Results from publication PMC3577938 (Organic & biomolecular chemistry, 2013).

Legend:
human TLR8 = biological target: T1, human TLR8 (Homo sapiens, UniProt Q9NR97); assay: Human TLR8-specific reporter gene assay; assay type: cell-based; conditions: for Agonistic Activity (μM) TLR8: EC50 in human TLR8-specific reporter gene assay, Inactive = EC50 >100 μM
T1 sequence (Q9NR97 27-1041): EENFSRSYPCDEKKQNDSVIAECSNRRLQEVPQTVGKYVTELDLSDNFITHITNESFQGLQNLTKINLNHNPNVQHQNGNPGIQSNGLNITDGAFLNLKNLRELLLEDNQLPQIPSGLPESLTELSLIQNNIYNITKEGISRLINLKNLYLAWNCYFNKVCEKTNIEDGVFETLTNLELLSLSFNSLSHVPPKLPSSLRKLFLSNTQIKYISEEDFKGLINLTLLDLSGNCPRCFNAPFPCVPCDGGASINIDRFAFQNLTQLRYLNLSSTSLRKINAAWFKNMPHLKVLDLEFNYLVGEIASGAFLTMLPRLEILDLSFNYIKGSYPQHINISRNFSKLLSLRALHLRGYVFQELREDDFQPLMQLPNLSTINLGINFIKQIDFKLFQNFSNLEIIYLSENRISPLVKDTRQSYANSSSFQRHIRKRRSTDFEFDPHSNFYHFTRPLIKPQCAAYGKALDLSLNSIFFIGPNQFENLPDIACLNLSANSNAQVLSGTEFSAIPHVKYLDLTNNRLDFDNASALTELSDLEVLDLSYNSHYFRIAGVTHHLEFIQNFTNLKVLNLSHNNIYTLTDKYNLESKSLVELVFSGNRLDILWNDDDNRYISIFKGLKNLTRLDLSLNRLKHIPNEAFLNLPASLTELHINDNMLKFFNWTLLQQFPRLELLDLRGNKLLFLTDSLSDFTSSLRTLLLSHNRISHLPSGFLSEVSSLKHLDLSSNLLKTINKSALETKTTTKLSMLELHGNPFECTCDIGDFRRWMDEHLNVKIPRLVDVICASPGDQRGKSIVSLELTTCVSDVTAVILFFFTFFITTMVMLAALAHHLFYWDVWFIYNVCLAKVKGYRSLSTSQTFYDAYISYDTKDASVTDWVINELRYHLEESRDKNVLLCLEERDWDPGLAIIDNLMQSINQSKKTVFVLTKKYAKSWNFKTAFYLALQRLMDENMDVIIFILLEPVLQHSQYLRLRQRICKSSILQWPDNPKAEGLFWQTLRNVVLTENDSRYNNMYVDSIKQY

human TLR7 = biological target: T2, human TLR7 (Homo sapiens, UniProt Q9NYK1); assay: Human TLR7-specific reporter gene assay; assay type: cell-based; conditions: EC50 in human TLR7-specific reporter gene assay; Inactive = EC50 >100 μM
T2 sequence (Q9NYK1 27-1049): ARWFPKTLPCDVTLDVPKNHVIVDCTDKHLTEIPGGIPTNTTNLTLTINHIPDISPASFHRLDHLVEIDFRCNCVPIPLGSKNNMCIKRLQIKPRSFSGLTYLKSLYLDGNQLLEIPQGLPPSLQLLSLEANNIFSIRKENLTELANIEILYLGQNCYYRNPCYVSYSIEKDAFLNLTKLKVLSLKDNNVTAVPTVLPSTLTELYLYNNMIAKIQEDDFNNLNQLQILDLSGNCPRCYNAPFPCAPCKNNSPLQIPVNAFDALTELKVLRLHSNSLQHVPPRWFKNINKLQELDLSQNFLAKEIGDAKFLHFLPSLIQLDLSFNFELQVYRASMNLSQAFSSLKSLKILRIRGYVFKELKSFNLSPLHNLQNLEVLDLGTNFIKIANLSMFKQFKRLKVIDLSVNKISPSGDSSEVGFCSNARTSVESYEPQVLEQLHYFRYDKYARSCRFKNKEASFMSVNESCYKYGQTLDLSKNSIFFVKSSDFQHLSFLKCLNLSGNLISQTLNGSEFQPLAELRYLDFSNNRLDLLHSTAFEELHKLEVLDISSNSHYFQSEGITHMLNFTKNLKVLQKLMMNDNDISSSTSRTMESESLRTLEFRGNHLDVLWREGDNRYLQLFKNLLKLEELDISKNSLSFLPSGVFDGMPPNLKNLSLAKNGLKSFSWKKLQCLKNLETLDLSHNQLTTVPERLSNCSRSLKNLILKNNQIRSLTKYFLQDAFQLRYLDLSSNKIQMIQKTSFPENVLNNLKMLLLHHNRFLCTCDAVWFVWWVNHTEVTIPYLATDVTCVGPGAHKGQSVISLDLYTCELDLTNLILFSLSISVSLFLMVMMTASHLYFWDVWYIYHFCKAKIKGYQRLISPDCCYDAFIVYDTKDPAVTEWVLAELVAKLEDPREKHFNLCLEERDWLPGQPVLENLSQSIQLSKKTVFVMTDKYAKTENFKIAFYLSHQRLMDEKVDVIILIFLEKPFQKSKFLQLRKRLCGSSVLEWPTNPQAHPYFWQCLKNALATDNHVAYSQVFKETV

human TLR7 or human TLR8 = assay type: cell-based; conditions: for agonistic activity (in words): primary TLR8/TLR7 reporter gene assays, receptor not given; for TLR8 versus TLR7 selectivity (in words): primary reporter gene screens
[1] = system: human peripheral blood mononuclear cells (hPBMC); assay: Cytokine induction in human PBMCs; assay type: cell-based; conditions: human PBMCs stimulated 12 h
[2] = system: New Zealand White rabbits; assay: Rabbit immunization with bovine α-lactalbumin and antigen-specific ELISA; assay type: in vivo; conditions: compared with 8c

| Compound | Agonistic Activity (μM) TLR8 (human TLR8) | Agonistic Activity (μM) TLR7 (human TLR7) | TLR8 versus TLR7 selectivity (in words) (human TLR7 or human TLR8) | TLR8-agonistic potency/activity (in words) (human TLR8; hTLR8 reporter gene assay) | agonistic activity (in words) (human TLR7 or human TLR8) | proinflammatory cytokine induction in hPBMCs (in words) [1] | consistency of adjuvanticity (confidence intervals of antibody titers) [2] |
| --- | --- | --- | --- | --- | --- | --- | --- |
| CCCC(=O)Nc1ccc2nc(N)c3nc(CCC)sc3c2c1 [Compound 13b, N-(4-amino-2-propylthiazolo[4,5-c]quinolin-8-yl)butyramide] | Inactive | Inactive | – | – | inactive | – | – |
| CCCc1nc2c(NC(=N)N)nc3ccccc3c2s1 [Compound 17, 1-(2-propylthiazolo[4,5-c]quinolin-4-yl)guanidine] | Inactive | Inactive | – | – | inactive | – | – |
| CCCCCCNc1ccc2nc(N)c3nc(CCC)sc3c2c1 [Compound 13a, N^8-hexyl-2-propylthiazolo[4,5-c]quinoline-4,8-diamine] | Inactive | Inactive | – | – | inactive | – | – |
| CC[C@H](C)c1nc2c(N)nc3ccccc3c2s1 [Compound 8n, (S)-2-(sec-butyl)thiazolo[4,5-c]quinolin-4-amine] | – | – | substantially more TLR8-selective | – | well tolerated | inferior in their cytokine induction profiles | – |
| CC(C)(C)CCc1nc2c(N)nc3ccccc3c2s1 [Compound 8m, 2-(3,3-dimethylbutyl)thiazolo[4,5-c]quinolin-4-amine] | Inactive | Inactive | – | – | inactive | – | – |
| CCCc1nc2c(N)nc3ccc(Br)cc3c2s1 [Compound 14, 8-bromo-2-propylthiazolo[4,5-c]quinolin-4-amine] | Inactive | Inactive | – | – | inactive | – | – |
| CCCc1nc2c(N)nc3ccc([N+](=O)[O-])cc3c2s1 [Compound 9, 8-nitro-2-propylthiazolo[4,5-c]quinolin-4-amine] | Inactive | Inactive | – | – | inactive | – | – |
| CC(C)Cc1nc2c(N)nc3ccccc3c2s1 [Compound 8j, 2-isobutylthiazolo[4,5-c]quinolin-4-amine] | – | – | substantially more TLR8-selective | – | well tolerated | inferior in their cytokine induction profiles | – |
| CC(C)(C)Cc1nc2c(N)nc3ccccc3c2s1 [Compound 8k, 2-neopentylthiazolo[4,5-c]quinolin-4-amine] | Inactive | Inactive | – | – | inactive | – | – |
| CC(C)CCc1nc2c(N)nc3ccccc3c2s1 [Compound 8l, 2-isopentylthiazolo[4,5-c]quinolin-4-amine] | Inactive | Inactive | – | – | entirely inactive | – | – |
| CCCCc1nc2c(N)nc3ccccc3c2s1 [Compound 8d, 2-butylthiazolo[4,5-c]quinolin-4-amine] | – | – | – | – | – | – | greater consistency and uniformity |
| CC[C@H](C)Cc1nc2c(N)nc3ccccc3c2s1 [Compound 8o, (S)-2-(2-methylbutyl)thiazolo[4,5-c]quinolin-4-amine] | – | – | substantially more TLR8-selective | – | active | inferior in their cytokine induction profiles | – |

Further lines, with some results ahead:

| Agonistic Activity (μM) TLR8 (human TLR8) | Agonistic Activity (μM) TLR7 (human TLR7) | TLR8 versus TLR7 selectivity (in words) (human TLR7 or human TLR8) | TLR8-agonistic potency/activity (in words) (human TLR8; hTLR8 reporter gene assay) | Compound | agonistic activity (in words) (human TLR7 or human TLR8) | proinflammatory cytokine induction in hPBMCs (in words) [1] | consistency of adjuvanticity (confidence intervals of antibody titers) [2] |
| --- | --- | --- | --- | --- | --- | --- | --- |
| Inactive | Inactive | – | – | CCCc1nc2c(NC(=O)c3ccccc3)nc3ccccc3c2s1 [Compound 15i, N-(2-propylthiazolo[4,5-c]quinolin-4-yl)benzamide] | entirely inactive | – | – |
| Inactive | Inactive | – | – | CCCCCCCC(=O)Nc1nc2ccccc2c2sc(CCC)nc12 [Compound 15g, N-(2-propylthiazolo[4,5-c]quinolin-4-yl)octanamide] | inactive | – | – |
| Inactive | Inactive | – | – | CCCCc1nc2c(NC(C)=O)nc3ccccc3c2s1 [Compound 18b, N-(2-butylthiazolo[4,5-c]quinolin-4-yl)acetamide] | selective loss of activity | – | – |
| Inactive | Inactive | – | – | CCCCCCNc1nc2ccccc2c2sc(CCC)nc12 [Compound 15b, N-hexyl-2-propylthiazolo[4,5-c]quinolin-4-amine] | devoid of any agonistic activity | – | – |
| Inactive | Inactive | – | – | CCCc1nc2c(NC(N)=O)nc3ccccc3c2s1 [Compound 15q, 1-(2-propylthiazolo[4,5-c]quinolin-4-yl)urea] | inactive | – | – |
| – | Inactive | – | – | CCCC(=O)Nc1nc2ccccc2c2sc(CCC)nc12 [Compound 15f, N-(2-propylthiazolo[4,5-c]quinolin-4-yl)butyramide] | active | – | – |
| Inactive | Inactive | – | – | CCCCNc1nc2ccccc2c2sc(CCC)nc12 [Compound 15a, N-butyl-2-propylthiazolo[4,5-c]quinolin-4-amine] | devoid of any agonistic activity | – | – |
| Inactive | Inactive | – | – | CCCCCCCCCCCCCCCC(=O)Nc1nc2ccccc2c2sc(CCC)nc12 [Compound 15h, N-(2-propylthiazolo[4,5-c]quinolin-4-yl)palmitamide] | inactive | – | – |
| – | – | – | comparable to that of 8c | CCCc1nc2c(NC=O)nc3ccccc3c2s1 [Compound 15d, N-(2-propylthiazolo[4,5-c]quinolin-4-yl)formamide] | active | near-complete loss of activity | – |
